Results reported in ChEMBL document CHEMBL4689842, “EUbOPEN Chemogenomics Library wave 1” (2021).

Legend:
Type in all cases: toxicity, cell-based
[1] = test system: HEK-293T; assay: Incucyte cell viability with HEK293T; conditions: human, 10 µM, compound concentration 10 uM
[2] = test system: Fibroblast; assay: Incucyte cell viability with human fibroblast; conditions: 10 µM, compound concentration 10 uM
[3] = test system: U2OS; assay: Incucyte cell viability with U2OS; conditions: human, 10 µM, compound concentration 10 uM
[4] = 0 h, replicate number 1, timepoint 0 hours
[5] = 0 h, replicate number 2, timepoint 0 hours
[6] = 6 h, replicate number 1, timepoint 6 hours
[7] = 12 h, replicate number 1, timepoint 12 hours
[8] = 18 h, replicate number 1, timepoint 18 hours
[9] = 24 h, replicate number 1, timepoint 24 hours
[10] = 18 h, replicate number 2, timepoint 18 hours
[11] = 24 h, replicate number 2, timepoint 24 hours
[12] = 6 h, replicate number 2, timepoint 6 hours
[13] = 12 h, replicate number 2, timepoint 12 hours
Further: filed as whole numbers so only -1 and 0 and 1 occur.

SMILES	Growth Rate [1, 4]	Growth Rate [1, 6]	Growth Rate [1, 7]	Growth Rate [1, 8]	Growth Rate [1, 9]	Growth Rate [2, 4]	Growth Rate [2, 7]	Growth Rate [2, 8]	Growth Rate [2, 10]	Growth Rate [2, 9]	Growth Rate [3, 4]	Growth Rate [3, 12]	Growth Rate [3, 7]	Growth Rate [3, 13]	Growth Rate [3, 8]	Growth Rate [3, 10]	Growth Rate [3, 9]	Growth Rate [1, 11]	Growth Rate [2, 6]	Growth Rate [3, 6]	further results
COc1ccc2c(c1)O[C@H](c1ccc(OC)c(OC)c1)C[C@@H]2NC(=O)C1(c2ccc3c(c2)OC(F)(F)O3)CC1 [A-1596584]	1	0	0	0	0	0	1	1	0	1	0	0	1	0	1	0	1	–	–	–	Growth Rate [1, 5]: 0; Growth Rate [2, 11]: 0
N#CC1(c2ccccn2)CCN(Cc2cc(C(=O)O)c(=O)n3ccccc23)CC1 [MSD-M1PAM]	1	1	1	1	1	0	0	0	1	0	–	–	0	–	0	1	0	0	0	0	Growth Rate [1, 5]: 0; Growth Rate [3, 5]: 1; Growth Rate [3, 11]: 1
CCCOc1ccn2c(C(C)=O)cc(-c3cccc(OC)c3)c2c1	0	–	–	–	–	0	–	–	0	1	0	–	1	–	1	–	1	1	–	0	Growth Rate [2, 12]: 0; Growth Rate [2, 13]: 1
O=C(N1CCS(=O)(=O)CC1)N1C[C@H](c2ccc(OC(F)(F)F)cc2)C[C@H](c2nc(C3CC3)no2)C1 [BAY-386]	0	1	0	0	0	0	–	–	0	1	–	1	0	1	0	1	0	–	–	0	Growth Rate [1, 13]: 1; Growth Rate [2, 12]: 0; Growth Rate [2, 13]: 0; Growth Rate [2, 11]: 0; Growth Rate [3, 5]: 0; Growth Rate [3, 11]: 1
COc1cccc(CNC(=O)c2nc3scc(COCc4ccc(C(=O)O)cc4)c3c(=O)[nH]2)c1 [T-26c]	0	–	–	1	1	–	1	1	0	1	0	0	1	0	1	–	1	–	–	1	Growth Rate [1, 5]: 1; Growth Rate [2, 5]: 0; Growth Rate [2, 12]: 0; Growth Rate [2, 13]: 0
CC1=C2C[C@H]3[C@@H](CC=C4C[C@@H](O)CC[C@@]43C)[C@@H]2CC[C@]12O[C@@H]1C[C@H](C)CN[C@H]1[C@H]2C [CYCLOPAMINE]	0	0	0	0	0	0	0	0	1	0	0	0	–	1	–	1	1	–	1	–	Growth Rate [2, 5]: 1
O=C(NNS(=O)(=O)c1ccccc1)c1cc(-c2ccnnc2)ccc1F [WM-2474]	0	1	1	1	0	0	1	1	–	1	1	–	0	–	0	–	1	1	–	0	Growth Rate [2, 12]: 0; Growth Rate [3, 5]: 0; Growth Rate [3, 11]: 0
Cc1c(F)cccc1NC(=O)Nc1ccc(Cl)c(S(=O)(=O)[C@H]2CCCNC2)c1O [DANIRIXIN]	0	0	0	0	0	0	1	1	–	1	0	1	0	1	0	1	0	–	–	0	Growth Rate [3, 5]: 1; Growth Rate [3, 11]: 1
OCCn1cc(-c2ccc3c(c2)CCC3=NO)c(-c2ccncc2)n1	0	–	1	0	0	0	1	1	0	1	1	–	1	–	1	0	1	1	–	1	Growth Rate [1, 10]: 1; Growth Rate [2, 12]: 1; Growth Rate [2, 13]: 0
C[C@@H](N)Cc1c[nH]cn1.Cl.Cl	0	1	1	1	1	1	0	0	–	0	1	–	0	1	0	1	0	0	0	0	Growth Rate [1, 12]: 0; Growth Rate [1, 13]: 0; Growth Rate [1, 10]: 0; Growth Rate [2, 5]: 0; Growth Rate [2, 11]: 1; Growth Rate [3, 11]: 1
CCC(=O)NC1Cc2ccccc2C(c2ccccc2)C1 (centres undefined)	0	1	0	0	0	0	0	0	–	0	0	0	1	–	1	0	0	–	0	–	Growth Rate [1, 12]: 0
C/C(=C/C=C/C(C)=C/C(=O)O)c1cc(C(C)(C)C)cc(C(C)(C)C)c1OCC(F)F	0	0	0	0	0	0	0	0	1	0	0	–	1	–	1	–	1	–	0	–	–
Cc1c(C2=CCN(C(=O)N(C)C(C)C)CC2)nnn1-c1cccnc1F	0	1	1	0	1	1	0	0	1	0	0	0	1	–	1	–	1	–	0	–	Growth Rate [1, 10]: 1; Growth Rate [2, 5]: 0; Growth Rate [2, 13]: 1; Growth Rate [2, 11]: 1
